Assay results published in ChEMBL document CHEMBL4321843, “Discovery of small-molecule candidates against inflammatory bowel disease” (Eur J Med Chem, 2020).

Experiments:
Type in all cases: functional
Mus musculus [1] = assay: Anti-colitis activity in C57BL/6 (B6) mouse model of DSS-induced colitis assessed as disease activity index at 100 mg/kg, ig pretreated for 3 days followed by DSS treatment for 7 days (reference value: 5.67 +/- 1.03)
Rattus norvegicus [2] = assay: Anti-colitis activity in Sprague-Dawley rat model of acetic acid-induced colitis assessed as histological scores at 50 mg/kg, po administered for 7 consecutive days and measured on day 8 (reference value: 9.3 +/- 2.8)
Rattus norvegicus [3] = assay: Anti-colitis activity in Sprague-Dawley rat model of acetic acid-induced colitis assessed as disease activity index at 50 mg/kg, po administered for 7 consecutive days and measured on day 8 (reference value: 3.9 +/- 0.4)
Rattus norvegicus [4] = assay: Anti-colitis activity in Sprague-Dawley rat model of acetic acid-induced colitis assessed as colon mucosa damage index at 50 mg/kg, po administered for 7 consecutive days and measured on day 8 (reference value: 3.3 +/- 0.6)
Rattus norvegicus [5] = assay: Antiinflammatory activity in Sprague-Dawley rat model of acetic acid-induced colitis assessed as reduction in IFNgamma level in serum at 50 mg/kg, po administered for 7 consecutive days and measured on day 8 by ELISA method
Mus musculus [6] = assay: Anti-colitis activity in ICR mouse model of DSS-induced colitis assessed as inhibition of DSS-induced colorectum shortening at 6 mg, po for 14 days relative to control
Mus musculus [7] = assay: Anti-colitis activity in ICR mouse model of DSS-induced colitis assessed as reduction in DSS-induced body weight loss at 6 mg, po for 14 days relative to control; design: scale not given: the % may be the effect or the level left

SMILES: O=C(O)[C@H]1O[C@@H](Oc2cc3oc(-c4ccccc4)cc(=O)c3c(O)c2O)[C@H](O)[C@@H](O)[C@@H]1O [BAICALIN]
- Activity_index (Mus musculus [1]): 3.33

SMILES: O=C(O[C@@H]1Cc2c(O)cc(O)cc2O[C@@H]1c1cc(O)c(O)c(O)c1)c1cc(O)c(O)c(O)c1 [EPIGALOCATECHIN GALLATE]
- Activity (Rattus norvegicus [2]): 4.6
- Activity_index (Rattus norvegicus [3]): 1.1
- Activity_index (Rattus norvegicus [4]): 1.5
- Activity (Rattus norvegicus [5]): 33.3 pg/mL

SMILES: O=c1c(O)c(-c2ccc(O)c(O)c2)oc2cc(O)cc(O)c12 [QUERCETIN]
- inhibition (INH) (Mus musculus [6]): 18%
- Activity (Mus musculus [7]): 21%

SMILES: C[C@@H]1O[C@@H](OC[C@H]2O[C@@H](Oc3c(-c4ccc(O)c(O)c4)oc4cc(O)cc(O)c4c3=O)[C@H](O)[C@@H](O)[C@@H]2O)[C@H](O)[C@H](O)[C@H]1O [RUTIN]
- inhibition (INH) (Mus musculus [6]): 73%
- Activity (Mus musculus [7]): 54%
